Experiments:
[1] = Accelerated autoxidation of lipids by air, Rancimat apparatus, squalene; conditions: antioxidative index = IP(with test solution)/IP(control sample), squalene purified over alumina grade N, stabilized with 1 ppm α-tocopherol
Method: (§1) The activity of the exemplary compounds as antioxidants was compared with that of conventional antioxidants. The test system used was the accelerated autoxidation of lipids by air with or without antioxidant using the Rancimat apparatus (Rancimat is a registered trademark of Metrohm AG, Herisau, Switzerland).
(§2) The exemplary compounds, vitamin C, α-tocopherol and 3,5-di-tert-butyl-4-hydroxytoluene were dissolved in methanol or acetone, and 100 μl of each test solution was added to a 3 g prepared oil sample. In a control sample, only solvent was added. A constant stream of dry air (20 l/h) was bubbled through the heated oil sample which contained the test solution, and the volatile oxidation products (predominantly short-chain fatty acids such as formic acid or acetic acid) were collected in a receiver containing water. The conductivity of this aqueous solution was continuously measured and documented. The oxidation of (unsaturated) fats proceeds only very slowly for some time and then suddenly increases. The time to the increase is referred to as the induction period (IP).
(§3) The following equation was used to calculate the antioxidative index (AOI):
(§4) AOI=IP(with test solution)/IP(control sample).
The results for the experiment at 80° C. in squalene that has been purified over alumina grade N and stabilized with 1 ppm of α-tocopherol are given in Table 4: […]

[2] = DPPH test for the removal of free radicals (activity as free-radical scavengers); conditions: DPPH 100 μmol/l in methanol, absorption at 515 nm
Method: The activity of the exemplary compounds as free-radical scavengers was compared with that of conventional free-radical scavengers. For this purpose, the DPPH-(1,1-diphenyl-2-picrylhydrazyl) test for the removal of free radicals was used.
DPPH was dissolved in methanol to a concentration of 100 μmol/l. A series of dilutions of the exemplary compounds, vitamin C, α-tocopherol and 3,5-di-tert-butyl-4-hydroxytoluene were prepared in methanol. Methanol served as the control. 2500 μl of the DPPH solution were mixed with 500 μl of each test solution and the decrease in absorption at 515 nm was read until the decrease was less than 2% per hour. The activity of the test substances as free-radical scavengers was calculated according to the following equation:
Activity as free-radical scavenger (%)=100−(absorption of the test compounds)/(absorption of the control)×100.
The activity as free-radical scavenger (%) in a series of dilutions of test compounds was used to calculate, for each test compound, the effective relative concentration EC50 (based on the starting concentration of DPPH, EC=c(test compound)/c(DPPH)) of a test compound at which 50% of the free radical DPPH had been removed.

[3] = Accelerated autoxidation of lipids by air, Rancimat apparatus, soybean oil; conditions: antioxidative index = IP(with test solution)/IP(control sample), soybean oil purified over alumina grade N
Method: as §1, §2, §3, §4

Structure (SMILES)	AOI in squalene at 80° C. with 0.005% test substance [1]	EC50 (effective relative concentration, c(test compound)/c(DPPH), at which 50% of the free radical DPPH had been removed) [2]	AOI in soybean oil at 100° C. with 0.05% test substance [3]
Cc1cc(C(C)(C)C)c(O)c(C(C)(C)C)c1 [3,5-Di-tert-butyl-4-hydroxytoluene, reference compound]	38	0.24 mol/mol	4.8
COC(=O)NCc1ccc(O)c(O)c1 [Example 1, N-(3,4-Dihydroxybenzyl)-O-methylurethane]	34	0.29 mol/mol	7.2
CC(C)[C@@H]1CC[C@@H](C)C[C@H]1OC(=O)NCc1ccc(O)c(O)c1 [Example 2, N-(3,4-Dihydroxybenzyl)-O-[(1R,3R,4S)menthyl]urethane]	48	0.36 mol/mol	6.5
CCCCCCOC(=O)NCc1ccc(O)c(O)c1 [Example 3, N-(3,4-Dihydroxybenzyl)-O-hexylurethane]	49	0.19 mol/mol	14.5
CCCCC(CC)COC(=O)NCc1ccc(O)c(O)c1 (centres unmarked) [Example 4, N-(3,4-Dihydroxybenzyl)-O-(2-ethylhexyl)urethane]	45	0.13 mol/mol	10.7
CCCCCCNC(=S)NCc1ccc(O)c(O)c1 [Example 5, N-(3,4-Dihydroxybenzyl)-N′-hexylthiourea]	62	0.06 mol/mol	–
O=C1O[C@H]([C@@H](O)CO)C(O)=C1O [Vitamin C, reference compound]	0.7	0.27 mol/mol	1.2
Cc1c(C)c2c(c(C)c1O)CC[C@@](C)(CCC[C@H](C)CCC[C@H](C)CCCC(C)C)O2 [α-Tocopherol, reference compound]	39	0.25 mol/mol	5.1

From patent US20030139470A1, “3,4-dihydroxybenzyl-substituted carbonic acid derivatives and the use thereof as antioxidants” (priority 2000, published 2003)
